Measured values taken from patent US20160367623A1, “AGONISTS OF GUANYLATE CYCLASE USEFUL FOR THE TREATMENT OF GASTROINTESTINAL DISORDERS, INFLAMMATION, CANCER AND OTHER DISORDERS” (priority 2015, published 2016).
Bridge positions count the residues as written; N and C are the ends. Ends that are not written are not given here.

Tested on: patients with chronic idiopathic constipation (CIC)
Experiment: Second phase 3 CIC trial: change from baseline in CSBMs/week
Assay type: in vivo, human
[1] = Post-Treatment Week 13, 3 mg, ITT Population, MRA
[2] = Post-Treatment Week 13, 3 mg, ITT Population-Excluding Duplicate Patients, MRA
[3] = Post-Treatment Week 13, 6 mg, ITT Population, MRA
[4] = Post-Treatment Week 13, 6 mg, ITT Population-Excluding Duplicate Patients, MRA
[5] = Post-Treatment Week 14, 3 mg, ITT Population, MRA
[6] = Post-Treatment Week 14, 3 mg, ITT Population-Excluding Duplicate Patients, MRA
[7] = Post-Treatment Week 14, 6 mg, ITT Population, MRA
[8] = Post-Treatment Week 14, 6 mg, ITT Population-Excluding Duplicate Patients, MRA
[9] = Week 1, 3 mg, ITT Population, MRA
[10] = Week 1, 3 mg, ITT Population-Excluding Duplicate Patients, MRA
[11] = Week 1, 6 mg, ITT Population, MRA
[12] = Week 1, 6 mg, ITT Population-Excluding Duplicate Patients, MRA
[13] = Week 2, 3 mg, ITT Population, MRA
[14] = Week 2, 3 mg, ITT Population-Excluding Duplicate Patients, MRA
[15] = Week 2, 6 mg, ITT Population, MRA
[16] = Week 2, 6 mg, ITT Population-Excluding Duplicate Patients, MRA
[17] = Week 3, 3 mg, ITT Population, MRA
[18] = Week 3, 3 mg, ITT Population-Excluding Duplicate Patients, MRA
[19] = Week 3, 6 mg, ITT Population, MRA

With “Asn^1-Asp^2-Glu^3-Cys^4-Glu^5-Leu^6-Cys^7-Val^8-Asn^9-Val^10-Ala^11-Cys^12-Thr^13-Gly^14-Cys^15-Leu^16 (NDECELCVNVACTGCL; disulfide 4-12, 7-15) [Plecanatide, uroguanylin analogue, guanylate cyclase-C agonist; (C4:C12, C7:C15) bicycle peptide]” the “Change from Baseline in CSBMs, LS Mean (SE)” value (“Change from Baseline … (SE)” for short) (6 mg, overall average estimate across the 12-week treatment period, All Randomized (includes Duplicate Patients)) was 2.14 (0.129) CSBMs/week, the “Change from Baseline in CSBMs, Mean (SD)” value (Active Combined, Post-Treatment Week 13, All Randomized (includes Duplicate Patients)) was 1.73 (2.552) CSBMs/week and the “Change from Baseline in CSBMs, Mean (SD)” value (Active Combined, Post-Treatment Week 14, All Randomized (includes Duplicate Patients)) was 1.69 (2.591) CSBMs/week. For the same substance, the “Change from Baseline in CSBMs, Mean (SD)” value (Active Combined, Week 1, All Randomized (includes Duplicate Patients)) was 1.73 (2.803) CSBMs/week, the “Change from Baseline in CSBMs, Mean (SD)” value (Active Combined, Week 2, All Randomized (includes Duplicate Patients)) was 1.83 (3.037) CSBMs/week and the “Change from Baseline in CSBMs, Mean (SD)” value (Active Combined, Week 3, All Randomized (includes Duplicate Patients)) was 1.89 (3.005) CSBMs/week. For the same substance, the “Change from Baseline in CSBMs, Difference from Placebo” value (shortened to “Change … Difference from Placebo”) [1] was 0.43 CSBMs/week, the “Change from Baseline … (SE)” value [1] was 1.94 (0.134) CSBMs/week and the “Change from Baseline in CSBMs, Mean (SD)” value [1] was 1.88 (2.733) CSBMs/week. The “Change … Difference from Placebo” value [2] was 0.46 CSBMs/week, the “Change from Baseline … (SE)” value [2] was 1.96 (0.135) CSBMs/week and the “Change from Baseline in CSBMs, Mean (SD)” value [2] was 1.90 (2.743) CSBMs/week. For the same substance, the “Change … Difference from Placebo” value [3] was 0.20 CSBMs/week, the “Change from Baseline … (SE)” value [3] was 1.70 (0.134) CSBMs/week and the “Change from Baseline in CSBMs, Mean (SD)” value [3] was 1.64 (2.393) CSBMs/week. The “Change … Difference from Placebo” value [4] was 0.18 CSBMs/week, the “Change from Baseline … (SE)” value [4] was 1.69 (0.133) CSBMs/week and the “Change from Baseline in CSBMs, Mean (SD)” value [4] was 1.62 (2.339) CSBMs/week. For the same substance, the “Change from Baseline in CSBMs, Mean (SD)” value (Post-Treatment Week 13, Active Combined, ITT Population-Excluding Duplicate Patients, MRA) was 1.76 (2.547) CSBMs/week, the “Change from Baseline in CSBMs, Mean (SD)” value (Post-Treatment Week 13, Active Combined, ITT Population, MRA) was 1.76 (2.567) CSBMs/week and the “Change … Difference from Placebo” value [5] was 0.43 CSBMs/week. For the same substance, the “Change from Baseline … (SE)” value [5] was 1.82 (0.136) CSBMs/week, the “Change from Baseline in CSBMs, Mean (SD)” value [5] was 1.78 (2.620) CSBMs/week and the “Change … Difference from Placebo” value [6] was 0.43 CSBMs/week. The “Change from Baseline … (SE)” value [6] was 1.83 (0.137) CSBMs/week, the “Change from Baseline in CSBMs, Mean (SD)” value [6] was 1.78 (2.628) CSBMs/week and the “Change … Difference from Placebo” value [7] was 0.34 CSBMs/week. For the same substance, the “Change from Baseline … (SE)” value [7] was 1.73 (0.137) CSBMs/week, the “Change from Baseline in CSBMs, Mean (SD)” value [7] was 1.67 (2.616) CSBMs/week and the “Change … Difference from Placebo” value [8] was 0.31 CSBMs/week. The “Change from Baseline … (SE)” value [8] was 1.71 (0.136) CSBMs/week, the “Change from Baseline in CSBMs, Mean (SD)” value [8] was 1.64 (2.536) CSBMs/week and the “Change from Baseline in CSBMs, Mean (SD)” value (Post-Treatment Week 14, Active Combined, ITT Population-Excluding Duplicate Patients, MRA) was 1.71 (2.582) CSBMs/week. The “Change from Baseline in CSBMs, Mean (SD)” value (Post-Treatment Week 14, Active Combined, ITT Population, MRA) was 1.72 (2.616) CSBMs/week, the “Change … Difference from Placebo” value [9] was 0.88 CSBMs/week and the “Change from Baseline … (SE)” value [9] was 1.72 (0.153) CSBMs/week. The “Change from Baseline in CSBMs, Mean (SD)” value [9] was 1.75 (2.732) CSBMs/week, the “Change … Difference from Placebo” value [10] was 0.88 CSBMs/week and the “Change from Baseline … (SE)” value [10] was 1.75 (0.155) CSBMs/week. The “Change from Baseline in CSBMs, Mean (SD)” value [10] was 1.78 (2.752) CSBMs/week, the “Change … Difference from Placebo” value [11] was 0.88 CSBMs/week and the “Change from Baseline … (SE)” value [11] was 1.71 (0.151) CSBMs/week. The “Change from Baseline in CSBMs, Mean (SD)” value [11] was 1.72 (2.897) CSBMs/week, the “Change … Difference from Placebo” value [12] was 0.87 CSBMs/week and the “Change from Baseline … (SE)” value [12] was 1.74 (0.153) CSBMs/week. For the same substance, the “Change from Baseline in CSBMs, Mean (SD)” value [12] was 1.74 (2.911) CSBMs/week, the “Change from Baseline in CSBMs, Mean (SD)” value (Week 1, Active Combined, ITT Population-Excluding Duplicate Patients, MRA) was 1.76 (2.832) CSBMs/week and the “Change from Baseline in CSBMs, Mean (SD)” value (Week 1, Active Combined, ITT Population, MRA) was 1.74 (2.815) CSBMs/week. The “Change … Difference from Placebo” value [13] was 0.86 CSBMs/week, the “Change from Baseline … (SE)” value [13] was 1.82 (0.153) CSBMs/week and the “Change from Baseline in CSBMs, Mean (SD)” value [13] was 1.81 (2.963) CSBMs/week. For the same substance, the “Change … Difference from Placebo” value [14] was 0.85 CSBMs/week, the “Change from Baseline … (SE)” value [14] was 1.84 (0.155) CSBMs/week and the “Change from Baseline in CSBMs, Mean (SD)” value [14] was 1.82 (2.986) CSBMs/week. The “Change … Difference from Placebo” value [15] was 0.85 CSBMs/week, the “Change from Baseline … (SE)” value [15] was 1.81 (0.152) CSBMs/week and the “Change from Baseline in CSBMs, Mean (SD)” value [15] was 1.84 (3.158) CSBMs/week. For the same substance, the “Change … Difference from Placebo” value [16] was 0.85 CSBMs/week, the “Change from Baseline … (SE)” value [16] was 1.84 (0.154) CSBMs/week and the “Change from Baseline in CSBMs, Mean (SD)” value [16] was 1.85 (3.171) CSBMs/week. For the same substance, the “Change from Baseline in CSBMs, Mean (SD)” value (Week 2, Active Combined, ITT Population-Excluding Duplicate Patients, MRA) was 1.84 (3.079) CSBMs/week, the “Change from Baseline in CSBMs, Mean (SD)” value (Week 2, Active Combined, ITT Population, MRA) was 1.82 (3.061) CSBMs/week and the “Change … Difference from Placebo” value [17] was 0.74 CSBMs/week. For the same substance, the “Change from Baseline … (SE)” value [17] was 1.94 (0.153) CSBMs/week, the “Change from Baseline in CSBMs, Mean (SD)” value [17] was 1.94 (3.117) CSBMs/week and the “Change … Difference from Placebo” value [18] was 0.74 CSBMs/week. The “Change from Baseline … (SE)” value [18] was 1.96 (0.156) CSBMs/week, the “Change from Baseline in CSBMs, Mean (SD)” value [18] was 1.95 (3.143) CSBMs/week and the “Change … Difference from Placebo” value [19] was 0.61 CSBMs/week. For the same substance, the “Change from Baseline … (SE)” value [19] was 1.81 (0.152) CSBMs/week.
